Reference: patent publication US11241428B2, “Heteroaryl amide derivatives as selective inhibitors of histone deacetylases 1 and/or 2(HDAC1-2)” (Medibiofarma, S.L., priority 2017, dated 2022)
pIC50: −log10 of the molar value.

Columns and labels:
[1] = biological target: HDAC 1 (Homo sapiens (Human), UniProt Q13547); test: biochemical HDAC assay (Reaction Biology Corp.), HDAC1; conditions: fluorogenic peptide RHKK(Ac)AMC; 10-dose, 3-fold dilution from 10 μM
Method: The inhibitory activities of compounds of present invention were determined using biochemical HDAC assays (Reaction Biology Corp. biochemical assay services). Compound with indicated doses was tested in the biochemical assays of HDAC 1, HDAC2, HDAC3, HDAC4, HDAC5, HDAC6, HDAC7, HDAC 8, HDAC9, HDAC10, and HDAC11 enzyme. Compounds were tested in singlicate 10-dose IC50 mode with 3-fold serial dilution starting at 10 μM against 11 HDACs. HDAC reference compounds Trichostatin A (TSA) and TMP269 were tested in a 10-dose IC50 with 3-fold serial dilution starting at 10 μM. Substrate for HDAC1,2,3,6,10: Fluorogenic peptide from p53 residues 379-382 (RHKK(Ac)AMC). Substrate for HDAC4,5,7,9, and 11: Fluorogenic HDAC Class2a Substrate (Trifluoroacetyl Lysine). Substrate for HDAC 8: Fluorogenic peptide from p53 residues 379-382 (RHK(Ac)K(Ac)AMC). General Reaction Procedure: (Standard IC50 determination) • a. 2× enzyme was added to wells of reaction plate except to No Enzyme (No En) control wells. Add buffer in No En wells. • b. Compounds to be tested in 100% DMSO were added to the enzyme mixture by Acoustic technology (Echo550; nanoliter range). The mixture was spinned down and preincubated. • c. 2× Substrate Mixture (Fluorogenic HDAC Substrate and co-factor (500 μM of Nicotinamide adenine dinucleotide (NAD<+>) in all Sirt assay) were added to all reaction wells to initiate the reaction. The plates were spinned and shaken. • d. The plates were incubated for 1-2 hr. at 30° C. with seal. • e. Developer with Trichostatin A (or TMP269 or NAD<+>) was added to stop the reaction and to generate fluorescent color. • f. Fluorescence was read (excitatory, 360; emission, 460) using the EnVision Multilabel Plate Reader (Perkin Elmer) • g. Endpoint reading was taken for analysis after the development reaches plateau. Data Analysis: The percentages of enzyme activity (relative to DMSO controls) and IC50 values were calculated using the GraphPad Prism 4 program based on a sigmoidal dose-response equation. The blank (DMSO) value was entered as 1.00E-12 of concentration for curve fitting.

[2] = biological target: HDAC2 (Homo sapiens (Human), UniProt Q92769); test: biochemical HDAC assay (Reaction Biology Corp.), HDAC2; conditions: fluorogenic peptide RHKK(Ac)AMC; 10-dose, 3-fold dilution from 10 μM
Method: (§1) The inhibitory activities of compounds of present invention were determined using biochemical HDAC assays (Reaction Biology Corp. biochemical assay services). Compound with indicated doses was tested in the biochemical assays of HDAC 1, HDAC2, HDAC3, HDAC4, HDAC5, HDAC6, HDAC7, HDAC 8, HDAC9, HDAC10, and HDAC11 enzyme.
(§2) Compounds were tested in singlicate 10-dose IC50 mode with 3-fold serial dilution starting at 10 μM against 11 HDACs. HDAC reference compounds Trichostatin A (TSA) and TMP269 were tested in a 10-dose IC50 with 3-fold serial dilution starting at 10 μM.
(§3) Substrate for HDAC1,2,3,6,10: Fluorogenic peptide from p53 residues 379-382 (RHKK(Ac)AMC). Substrate for HDAC4,5,7,9, and 11: Fluorogenic HDAC Class2a Substrate (Trifluoroacetyl Lysine). Substrate for HDAC 8: Fluorogenic peptide from p53 residues 379-382 (RHK(Ac)K(Ac)AMC).
(§4) General Reaction Procedure: (Standard IC50 determination) • a. 2× enzyme was added to wells of reaction plate except to No Enzyme (No En) control wells. Add buffer in No En wells. • b. Compounds to be tested in 100% DMSO were added to the enzyme mixture by Acoustic technology (Echo550; nanoliter range). The mixture was spinned down and preincubated. • c. 2× Substrate Mixture (Fluorogenic HDAC Substrate and co-factor (500 μM of Nicotinamide adenine dinucleotide (NAD<+>) in all Sirt assay) were added to all reaction wells to initiate the reaction. The plates were spinned and shaken. • d. The plates were incubated for 1-2 hr. at 30° C. with seal. • e. Developer with Trichostatin A (or TMP269 or NAD<+>) was added to stop the reaction and to generate fluorescent color. • f. Fluorescence was read (excitatory, 360; emission, 460) using the EnVision Multilabel Plate Reader (Perkin Elmer) • g. Endpoint reading was taken for analysis after the development reaches plateau.
(§5) Data Analysis: The percentages of enzyme activity (relative to DMSO controls) and IC50 values were calculated using the GraphPad Prism 4 program based on a sigmoidal dose-response equation. The blank (DMSO) value was entered as 1.00E-12 of concentration for curve fitting.

[3] = biological target: HDAC3 (Homo sapiens (Human), UniProt O15379); test: biochemical HDAC assay (Reaction Biology Corp.), HDAC3; conditions: fluorogenic peptide RHKK(Ac)AMC; 10-dose, 3-fold dilution from 10 μM
Method: as §1, §2, §3, §4, §5

[4] = biological target: HDAC10 (Homo sapiens (Human), UniProt Q969S8); test: biochemical HDAC assay (Reaction Biology Corp.), HDAC10; conditions: fluorogenic peptide RHKK(Ac)AMC; 10-dose, 3-fold dilution from 10 μM
Method: as §1, §2, §3, §4, §5

[5] = biological target: HDAC6 (Homo sapiens (Human), UniProt Q9UBN7); test: biochemical HDAC assay (Reaction Biology Corp.), HDAC6; conditions: fluorogenic peptide RHKK(Ac)AMC; 10-dose, 3-fold dilution from 10 μM
Method: as §1, §2, §3, §4, §5

[6] = biological target: HDAC8 (Homo sapiens (Human), UniProt Q9BY41); test: biochemical HDAC assay (Reaction Biology Corp.), HDAC8; conditions: fluorogenic peptide RHK(Ac)K(Ac)AMC; 10-dose, 3-fold dilution from 10 μM
Method: as §1, §2, §3, §4, §5

HDAC8, sequence (Q9BY41 whole entry): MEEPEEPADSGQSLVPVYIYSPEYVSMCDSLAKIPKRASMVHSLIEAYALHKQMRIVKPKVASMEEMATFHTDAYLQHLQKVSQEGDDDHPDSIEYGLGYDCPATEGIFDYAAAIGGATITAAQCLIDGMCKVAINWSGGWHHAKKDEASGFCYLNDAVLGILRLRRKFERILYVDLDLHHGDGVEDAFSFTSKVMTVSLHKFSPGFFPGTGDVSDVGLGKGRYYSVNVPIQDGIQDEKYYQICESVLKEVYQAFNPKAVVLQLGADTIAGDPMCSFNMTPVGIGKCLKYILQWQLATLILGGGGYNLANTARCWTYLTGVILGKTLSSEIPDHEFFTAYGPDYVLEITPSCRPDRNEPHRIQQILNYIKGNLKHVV
HDAC6, sequence (Q9UBN7 whole entry): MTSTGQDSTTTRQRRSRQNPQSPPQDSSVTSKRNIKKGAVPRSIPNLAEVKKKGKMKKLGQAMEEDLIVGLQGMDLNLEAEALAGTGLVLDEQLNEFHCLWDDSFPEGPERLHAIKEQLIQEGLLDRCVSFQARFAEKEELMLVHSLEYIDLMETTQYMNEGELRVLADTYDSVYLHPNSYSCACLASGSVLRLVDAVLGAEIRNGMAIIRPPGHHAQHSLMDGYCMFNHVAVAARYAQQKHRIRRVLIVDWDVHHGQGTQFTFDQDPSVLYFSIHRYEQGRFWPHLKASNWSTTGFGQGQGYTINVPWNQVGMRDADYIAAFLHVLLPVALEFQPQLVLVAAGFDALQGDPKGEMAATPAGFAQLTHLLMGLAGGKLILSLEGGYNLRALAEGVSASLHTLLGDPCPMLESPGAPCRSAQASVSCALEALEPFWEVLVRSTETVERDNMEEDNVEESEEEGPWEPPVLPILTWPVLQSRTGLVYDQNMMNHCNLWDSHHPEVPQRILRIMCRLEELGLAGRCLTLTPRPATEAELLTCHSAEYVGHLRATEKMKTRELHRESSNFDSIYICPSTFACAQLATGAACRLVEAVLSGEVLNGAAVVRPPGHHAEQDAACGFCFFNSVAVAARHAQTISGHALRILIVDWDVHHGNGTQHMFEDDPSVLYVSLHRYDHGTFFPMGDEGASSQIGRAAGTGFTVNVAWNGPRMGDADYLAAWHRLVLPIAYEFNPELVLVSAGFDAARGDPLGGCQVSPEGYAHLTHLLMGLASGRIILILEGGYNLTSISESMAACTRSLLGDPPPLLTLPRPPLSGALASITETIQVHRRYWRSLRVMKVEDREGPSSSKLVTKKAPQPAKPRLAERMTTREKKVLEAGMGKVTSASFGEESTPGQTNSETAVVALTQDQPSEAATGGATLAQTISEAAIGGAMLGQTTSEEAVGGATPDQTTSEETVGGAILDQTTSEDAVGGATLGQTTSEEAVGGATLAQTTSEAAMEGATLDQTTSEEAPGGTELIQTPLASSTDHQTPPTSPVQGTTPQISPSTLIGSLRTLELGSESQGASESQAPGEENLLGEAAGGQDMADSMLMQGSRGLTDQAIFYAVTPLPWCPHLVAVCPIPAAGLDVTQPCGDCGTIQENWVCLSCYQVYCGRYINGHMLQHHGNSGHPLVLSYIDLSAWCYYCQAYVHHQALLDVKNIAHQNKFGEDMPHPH
HDAC 1, sequence (Q13547 whole entry, the tested form may be a part): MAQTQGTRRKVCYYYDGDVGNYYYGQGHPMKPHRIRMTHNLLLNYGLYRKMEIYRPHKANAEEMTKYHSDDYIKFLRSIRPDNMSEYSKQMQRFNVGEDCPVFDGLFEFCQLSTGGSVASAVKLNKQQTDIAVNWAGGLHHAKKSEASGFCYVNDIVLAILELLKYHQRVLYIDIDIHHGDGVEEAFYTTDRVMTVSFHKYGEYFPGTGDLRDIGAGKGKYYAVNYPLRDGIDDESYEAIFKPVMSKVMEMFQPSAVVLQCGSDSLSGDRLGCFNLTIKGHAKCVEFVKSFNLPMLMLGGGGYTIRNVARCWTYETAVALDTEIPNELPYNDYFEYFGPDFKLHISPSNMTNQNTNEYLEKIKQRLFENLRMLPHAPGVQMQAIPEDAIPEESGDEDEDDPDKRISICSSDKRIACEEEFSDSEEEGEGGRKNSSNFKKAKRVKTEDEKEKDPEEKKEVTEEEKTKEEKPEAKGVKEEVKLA
HDAC2, sequence (Q92769 whole entry): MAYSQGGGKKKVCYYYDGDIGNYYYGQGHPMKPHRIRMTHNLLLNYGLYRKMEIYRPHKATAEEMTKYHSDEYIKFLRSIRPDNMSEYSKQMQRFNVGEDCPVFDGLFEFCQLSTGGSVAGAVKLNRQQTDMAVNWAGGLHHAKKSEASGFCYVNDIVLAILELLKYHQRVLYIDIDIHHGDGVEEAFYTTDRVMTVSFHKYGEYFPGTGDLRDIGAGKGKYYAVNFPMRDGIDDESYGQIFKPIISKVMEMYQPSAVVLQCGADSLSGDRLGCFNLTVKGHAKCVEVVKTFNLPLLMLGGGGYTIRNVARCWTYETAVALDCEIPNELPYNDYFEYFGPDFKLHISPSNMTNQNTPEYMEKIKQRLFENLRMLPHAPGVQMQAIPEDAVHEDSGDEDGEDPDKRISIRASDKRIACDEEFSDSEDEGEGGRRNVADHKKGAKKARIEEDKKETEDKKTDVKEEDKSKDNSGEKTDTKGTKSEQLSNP
HDAC3, sequence (O15379 whole entry): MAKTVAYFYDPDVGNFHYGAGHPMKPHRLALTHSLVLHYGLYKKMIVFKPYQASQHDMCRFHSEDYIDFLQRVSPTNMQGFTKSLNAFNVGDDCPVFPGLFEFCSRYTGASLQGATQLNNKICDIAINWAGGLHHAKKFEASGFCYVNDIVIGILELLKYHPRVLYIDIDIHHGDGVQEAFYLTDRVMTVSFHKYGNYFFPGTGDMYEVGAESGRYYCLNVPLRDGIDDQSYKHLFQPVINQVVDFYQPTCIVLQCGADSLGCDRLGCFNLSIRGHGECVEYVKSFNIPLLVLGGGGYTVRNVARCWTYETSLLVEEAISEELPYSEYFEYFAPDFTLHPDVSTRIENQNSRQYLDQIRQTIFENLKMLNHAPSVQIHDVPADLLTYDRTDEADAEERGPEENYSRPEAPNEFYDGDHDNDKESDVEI
HDAC3, sequence (Q9Y618 395-489 partner): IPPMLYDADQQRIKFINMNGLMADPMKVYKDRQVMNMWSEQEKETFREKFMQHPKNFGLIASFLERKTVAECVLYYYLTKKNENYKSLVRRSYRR
HDAC10, sequence (Q969S8 whole entry): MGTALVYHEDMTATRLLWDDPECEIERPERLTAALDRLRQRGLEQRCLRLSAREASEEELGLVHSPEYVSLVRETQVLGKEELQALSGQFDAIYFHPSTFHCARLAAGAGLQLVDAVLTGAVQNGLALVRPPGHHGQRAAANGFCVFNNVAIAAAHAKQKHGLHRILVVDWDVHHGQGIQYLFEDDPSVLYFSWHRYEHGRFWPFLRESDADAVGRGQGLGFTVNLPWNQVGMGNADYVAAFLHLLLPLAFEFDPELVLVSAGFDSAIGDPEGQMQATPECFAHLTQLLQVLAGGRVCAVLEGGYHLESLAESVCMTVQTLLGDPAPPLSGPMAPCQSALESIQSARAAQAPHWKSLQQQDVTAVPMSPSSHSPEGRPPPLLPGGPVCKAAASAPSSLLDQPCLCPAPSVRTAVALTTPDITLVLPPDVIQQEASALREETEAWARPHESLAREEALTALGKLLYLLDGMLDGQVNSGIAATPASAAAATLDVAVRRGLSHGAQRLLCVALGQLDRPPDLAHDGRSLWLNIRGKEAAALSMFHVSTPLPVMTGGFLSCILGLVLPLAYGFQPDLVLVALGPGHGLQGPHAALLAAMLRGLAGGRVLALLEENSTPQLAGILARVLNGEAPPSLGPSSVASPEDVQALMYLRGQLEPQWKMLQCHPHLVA

Row | pIC50 [1] | pIC50 [2] | pIC50 [3] | pIC50 [4] | pIC50 [5] | pIC50 [6] | Molecule
1 | 4.30 to 6.00 | > 6.70 | ≤ 4.30 | ≤ 4.30 |  |  | Nc1ccc(-c2ccc(F)cc2)nc1NC(=O)c1cnc(NC2CC2)nc1 [Example 17, N-(3-amino-6-(4-fluorophenyl)pyridin-2-yl)-2-(cyclopropylamino)pyrimidine-5-carboxamide]
2 |  | > 6.70 |  |  |  |  | Nc1ccc(-c2ccc(F)cc2)nc1NC(=O)c1cccnc1 [Example 3, N-(3-amino-6-(4-fluorophenyl)pyridin-2-yl)nicotinamide]
3 |  | > 6.70 |  |  |  |  | CN1CCN(c2ncc(C(=O)Nc3nc(-c4ccccc4)ccc3N)cn2)CC1 [Example 10, N-(3-amino-6-phenylpyridin-2-yl)-2-(4-methylpiperazin-1-yl)pyrimidine-5-carboxamide]
4 |  | > 6.70 |  |  |  |  | CN1CCN(CCNc2ccc(C(=O)Nc3nc(-c4ccc(F)cc4)ccc3N)cn2)CC1 [Example 30, N-(3-amino-6-(4-fluorophenyl)pyridin-2-yl)-6-((2-(4-methylpiperazin-1-yl)ethyl)amino)nicotinamide]
5 |  | > 6.70 |  |  |  |  | CN1CCN(c2ccc(C(=O)Nc3nc(-c4ccccc4)ccc3N)cn2)CC1 [Example 1, N-(3-amino-6-phenylpyridin-2-yl)-6-(4-methylpiperazin-1-yl)nicotinamide]
6 | > 6.70 | > 6.70 | 4.30 to 6.00 | 4.30 to 6.00 | 4.30 to 6.00 |  | CN1CCN(c2ccc(C(=O)Nc3nc(-c4cccs4)ccc3N)cn2)CC1 [Example 29, N-(3-amino-6-(thiophen-2-yl)pyridin-2-yl)-6-(4-methylpiperazin-1-yl)nicotinamide]
7 |  | > 6.70 |  |  |  |  | Nc1ccc(-c2ccc(F)cc2)nc1NC(=O)c1cnc(N2CCOCC2)nc1 [Example 14, N-(3-amino-6-(4-fluorophenyl)pyridin-2-yl)-2-morpholinopyrimidine-5-carboxamide]
8 |  | > 6.70 |  |  |  |  | N-(3-amino-6-(4-fluorophenyl)pyridin-2-yl)-6-(4-methylpiperazin-1-yl)nicotinamide [Example 13]
9 |  | 6.00 to 6.70 |  |  |  |  | COc1ccc(-c2ccc(N)c(NC(=O)c3ccc(N4CCN(C)CC4)nc3)n2)cc1 [Example 7, N-(3-amino-6-(4-methoxyphenyl)pyridin-2-yl)-6-(4-methylpiperazin-1-yl)nicotinamide]
10 |  | > 6.70 |  |  |  |  | CN1CCN(c2ncc(C(=O)Nc3nc(-c4ccc(F)cc4)ccc3N)cn2)CC1 [Example 15, N-(3-amino-6-(4-fluorophenyl)pyridin-2-yl)-2-(4-methylpiperazin-1-yl)pyrimidine-5-carboxamide]
11 |  | > 6.70 |  |  |  |  | Nc1ccc(-c2ccccc2)nc1NC(=O)c1ccc(N2CCOCC2)nc1 [Example 4, N-(3-amino-6-phenylpyridin-2-yl)-6-morpholinonicotinamide]
12 | > 6.70 | > 6.70 | ≤ 4.30 | 4.30 to 6.00 |  | ≤ 4.30 | Nc1ccc(-c2ccc(F)cc2)nc1NC(=O)c1ccc(N2CCOCC2)nc1 [Example 5, N-(3-amino-6-(4-fluorophenyl)pyridin-2-yl)-6-morpholinonicotinamide]
13 |  | 6.00 to 6.70 |  |  |  |  | N#Cc1cccc(-c2ccc(C(=O)Nc3nc(-c4ccc(F)cc4)ccc3N)cn2)c1 [Example 22, N-(3-amino-6-(4-fluorophenyl)pyridin-2-yl)-6-(3-cyanophenyl)nicotinamide]
14 |  | > 6.70 |  |  |  |  | Nc1ccc(-c2ccccc2)nc1NC(=O)c1cnc(NC2CC2)nc1 [Example 16, N-(3-amino-6-phenylpyridin-2-yl)-2-(cyclopropylamino)pyrimidine-5-carboxamide]
15 |  | 6.00 to 6.70 |  |  |  |  | CN1CCN(c2ccc(C(=O)Nc3nc(-c4ccc(F)c(F)c4)ccc3N)cn2)CC1 [Example 9, N-(3-amino-6-(3,4-difluorophenyl)pyridin-2-yl)-6-(4-methylpiperazin-1-yl)nicotinamide]
16 |  | > 6.70 |  |  |  |  | Nc1ccc(-c2ccccc2)nc1NC(=O)c1cccnc1 [Example 2, N-(3-amino-6-phenylpyridin-2-yl)nicotinamide]
17 |  | 6.00 to 6.70 |  |  |  |  | Nc1ccc(-c2ccc(F)cc2)nc1NC(=O)c1ccc(-c2cccnc2)nc1 [Example 21, N-(3-amino-6-(4-fluorophenyl)pyridin-2-yl)-[2,3′-bipyridine]-5-carboxamide]
18 |  | 6.00 to 6.70 |  |  |  |  | CN1CCN(c2ccc(C(=O)Nc3nc(-c4ccncc4)ccc3N)cn2)CC1 [Example 8, N-(5-amino-[2,4′-bipyridin]-6-yl)-6-(4-methylpiperazin-1-yl)nicotinamide]
19 | 6.00 to 6.70 | > 6.70 | ≤ 4.30 | 4.30 to 6.00 | 4.30 to 6.00 | ≤ 4.30 | Nc1ccc(-c2ccc(F)cc2)nc1NC(=O)c1ccc(N2CCNCC2)nc1 [Example 25, N-(3-amino-6-(4-fluorophenyl)pyridin-2-yl)-6-(piperazin-1-yl)nicotinamide]
20 | > 6.70 | > 6.70 | ≤ 4.30 | 4.30 to 6.00 | ≤ 4.30 | ≤ 4.30 | CN1CCN(c2ccc(C(=O)Nc3nc(-c4ccc(F)cc4)ccc3N)cn2)CC1 [Example 6, N-(3-amino-6-(4-fluorophenyl)pyridin-2-yl)-6-(4-methylpiperazin-1-yl)nicotinamide]
21 | > 6.70 | > 6.70 | ≤ 4.30 | 4.30 to 6.00 | 4.30 to 6.00 |  | Nc1ccc(-c2ccc(F)cc2)nc1NC(=O)c1ccc(N2CCC(N)CC2)nc1 [Example 27, N-(3-amino-6-(4-fluorophenyl)pyridin-2-yl)-6-(4-aminopiperidin-1-yl)nicotinamide]
